Assay results as given in patent publication US7470707B2, “Crystalline monohydrate clopidogrel naphthalenedisulfonate and process of preparation” (Hanmi Pharm. Co., Ltd, priority 2004, dated 2008).
Where two headings read alike, the source gives them in different places.

Legend:
[1] = system: platelet aggregation induced by adenosine-diphosphate (ADP); details: ADP (5 μM); PRP of female Sprague-Dawley rats after oral dose corresponding to clopidogrel 15.3 mg/kg
Procedure: (§1) The pharmacological activities for preventing platelet aggregation of the clopidogrel hydrogen sulfate obtained in Comparative Example 1, and the inventive clopidogrel 2-naphthalenesulfonate and clopidogrel 1,5-naphthalenedisulfonate monohydrate obtained in Examples 1 and 2, respectively, were tested using rat blood in accordance with the standard method (see Born G.V.R & Cross, J. Physiol. 168: 178-195, 1963; 0. Takahashi, Food & Chemical Toxicology 38: 203-218, 2000). The platelet aggregation inhibition test was performed ex vivo, and the inhibitory activities of the acid addition salts against platelets aggregation induced by adenosine-diphosphate (ADP), collagen and thrombin, respectively, were measured.
(§2) Twenty 11 to 12-weeks old female Sprague-Dawley rats (average weight: 270±25 g) were divided into four groups each consisting of five rats, and each group of rats was orally administered with 20.0 mg/kg of clopidogrel hydrogen sulfate (15.3 mg/kg as clopidogrel), 25.2 mg/kg of clopidogrel 2-naphthalenesulfonate, and 22.6 mg/kg of clopidogrel 1,5-naphthalenedisulfonate monohydrate dissolved in 1% DMSO based on a volume of 10 ml/kg body weight. For the control group of rats, only 1% DMSO solution was administered.
(§3) Blood samples were taken using a syringe pre-charged with 3.8% citric acid solution from the abdominal artery of the animals under anesthesia, and the blood samples were centrifuged at 4° C. and 1,000 rpm for 10 minutes to separate platelet-rich plasma (PRP). The separated plasma was further centrifuged four times at 4° C. and 1,000 rpm to obtain PRP for test. A portion of PRP was further centrifuged at 4° C. and 3,000 rpm for 10 minutes to prepare precipitated platelet, and the precipitated platelet was washed with a buffer (138 mM NaCl, 2.7 mM KCl, 12 mM NaHCO3, 0.36 mM NaH2PO4, 5.5 mM glucose, 1 mM EDTA: pH 6.5). Then, the platelet was suspended in a buffer (138 mM NaCl, 2.7 mM KCl, 12 mM NaHCO3, 0.36 mM NaH2PO4, 0.49 mM MgCl2, 0.25% gelatin, 5.5 mM glucose: pH 7.4) such that the optical density (OD) value at 260 nm corresponded to a number of platelet which is about 1×10^8.
(§4) To induce platelet aggregation, ADP standard solution was added to the above PRP to determine the concentration until the final concentration of the ADP became 5 μM. Further, a collagen standard solution (final concentration 5 μg/ml) and thrombin standard solution (final concentration 0.1 U/ml) was added to the above washing platelet solution to induce platelet aggregation. Each of the samples was stirred at 37° C. and 900 rpm to measure the amount of platelet aggregation using a aggregometer (Chrono-log Platelet Aggregometer). The degrees of platelet aggregation and inhibition were calculated using formulae 1 and 2, and the results are shown in Table 8. Degree of aggregation (%)=[(measured aggregation height)/(aggregation height when 100% was aggregated)]×100 <Formula 1> Degree of inhibition (%)=[(aggregation height of control group)−(aggregation height of drug administration group)]/(aggregation height of control group)×100 <Formula 2>

[2] = system: platelet aggregation induced by collagen; details: Collagen (5 μg/ml); washed platelets of female Sprague-Dawley rats after oral dose corresponding to clopidogrel 15.3 mg/kg
Procedure: as §1, §2, §3, §4

[3] = system: platelet aggregation induced by thrombin; details: Thrombin (0.1 U/ml); washed platelets of female Sprague-Dawley rats after oral dose corresponding to clopidogrel 15.3 mg/kg
Procedure: as §1, §2, §3, §4

[4] = 60±2° C., 75±5% relative humidity
Procedure: (§5) The assay of the acid addition salt of clopidogrel was measured using HPLC condition A, the amount of hydrolyzed impurities of the acid addition salt of clopidogrel was measured using HPLC condition B, the optical purity of the acid addition salt of clopidogrel (i.e., the amount of the levorotatory isomers) was measured using the HPLC condition C, and the water content of the acid addition salt of clopidogrel was measured with a Karl-Fisher titrator.

[5] = 60±2° C., 75±5% RH; for Relative amount compared to the initial amount: HPLC condition A; for Amount of hydrolyzed impurities (formula (III)) of an acid addition salt of clopidogrel: HPLC condition B; for Amount of levorotatory isomers (formula (IV)) of an acid addition salt of clopidogrel: HPLC condition C
Procedure: Condition A: For the measurement of an assay of an acid addition salt of clopidogrel
• Column: Kromasil C18, 5 μm (250 mm×4.6 mm) • Detector: 220 nm • Flow rate: 1.5 ml/minute • Mobile phase: Na2HPO4—NaH2PO4 buffer solution: THF: CH3CN=5:2:3 (v/v) Condition B: For the measurement of an amount of hydrolyzed impurities of an acid addition salt of clopidogrel • Column: Capcellpak C18 MG, 5 μm (250 mm×4.6 mm) • Detector: 210 nm • Flow rate: 1.0 ml/min. • Mobile phase: KH2PO4 buffer solution/CH3CN (70/30): KH2PO4 buffer solution/CH3CN (30/70)=0:100 100:0 (v/v, gradient elution) Condition C: For the measurement of an optical purity of an acid addition salt of clopidogrel • Column: Chiralpak AD, 5 μm (250 mm×4.6 mm) • Detector: 210 nm • Flow rate: 1.0 ml/min. • Mobile phase: n-hexane: isopropanol=90:10 (v/v)
as §5

**Q.** Which Aggregation ratio [1] does the source give for `COC(=O)[C@H](c1ccccc1Cl)N1CCc2sccc2C1` [2-Naphthalenesulfonate, Clopidogrel 2-naphthalenesulfonate] here?
**A.** 2.94 ± 0.21%

**Q.** And the Inhibition ratio [1]?
**A.** 91.8%

**Q.** And the Aggregation ratio [2]?
**A.** 1.88 ± 0.25%

**Q.** And the Inhibition ratio [2]?
**A.** 97.9%

**Q.** What about the Aggregation ratio [3] of the same molecule?
**A.** 15.00 ± 1.71%

**Q.** And the Inhibition ratio [3]?
**A.** 81.9%

**Q.** And the Water content ([4]; 0 day)?
**A.** 0.1%

**Q.** What about the Water content ([4]; 7 days) of the same molecule?
**A.** 0.1%

**Q.** And the Water content ([4]; 14 days)?
**A.** 0.1%

**Q.** What about the Water content ([4]; 21 days) of the same molecule?
**A.** 0.1%

**Q.** What about the Water content ([4]; 28 days) of the same molecule?
**A.** 0.1%

**Q.** What about the Water content ([4]; 35 days) of the same molecule?
**A.** 0.1%

**Q.** And the “Relative amount compared to the initial amount” value (“Relative amount” below) ([5]; 0 day)?
**A.** 100%

**Q.** And the “Amount of hydrolyzed impurities (formula (III)) of an acid addition salt of clopidogrel” value (“Amount of hydrolyzed impurities” for short) ([5]; 0 day)?
**A.** 0.0%

**Q.** And the “Amount of levorotatory isomers (formula (IV)) of an acid addition salt of clopidogrel” value (shortened to “Amount of levorotatory isomers”) ([5]; 0 day)?
**A.** 0.10%

**Q.** And the “Relative amount” value ([5]; 7 days)?
**A.** 99.1%

**Q.** What about the “Amount of levorotatory isomers” value ([5]; 7 days) of the same molecule?
**A.** 0.10%

**Q.** And the “Relative amount” value ([5]; 14 days)?
**A.** 99.3%

**Q.** What about the “Amount of hydrolyzed impurities” value ([5]; 14 days) of the same molecule?
**A.** 0.12%

**Q.** And the “Amount of levorotatory isomers” value ([5]; 14 days)?
**A.** 0.10%

**Q.** What about the “Relative amount” value ([5]; 21 days) of the same molecule?
**A.** 99.1%

**Q.** And the “Amount of levorotatory isomers” value ([5]; 21 days)?
**A.** 0.10%

**Q.** What about the “Relative amount” value ([5]; 28 days) of the same molecule?
**A.** 99.0%

**Q.** What about the “Amount of hydrolyzed impurities” value ([5]; 28 days) of the same molecule?
**A.** 0.16%

**Q.** What about the “Amount of levorotatory isomers” value ([5]; 28 days) of the same molecule?
**A.** 0.11%

**Q.** And the “Relative amount” value ([5]; 35 days)?
**A.** 99.2%

**Q.** What about the “Amount of hydrolyzed impurities” value ([5]; 35 days) of the same molecule?
**A.** 0.18%

**Q.** And the “Amount of levorotatory isomers” value ([5]; 35 days)?
**A.** 0.13%
